Test results reported in patent US5075307A, “Paraherquamide and dihydroparaherquamide as antihelminthic agents” (Merck & Co., Inc., priority 1987, dated 1991).

Legend:
[1] = system: Cooperia curticei; experiment: Anthelmintic activity, single oral dose in experimentally infected sheep: residual worm burden vs untreated control; type: in vivo; conditions: 8 days after treatment
Protocol: (§1) Four "Parasite-free" sheep were exposed to infection with infective L3 of H. contortus, O. circumcincta, T. axei, T. colubriformis, C. curticei, C. oncophora, and Oe. columbianum. Twenty-four days after the last oral dose of infective larvae, when the infections were patent, three of the sheep were randomly assigned to treatment with either 6, 3 or 1 mg/kg body weight of paraherquamide as a single oral dose. The fourth sheep was maintained as an untreated control. All treatments were administered as solutions at a volume of 0.2 ml/kg P.O.: 6 mg/kg as a solution containing 30 mg/ml; 3 mg/kg as a solution containing 15 mg/ml; 1 mg/kg as a solution containing 5 mg/ml. The vehicle used was a mixture of dimethylsulfoxide: propylene glycol:miglyol (1.5:5:3.5).
(§2) Eight days following treatment the treated and control sheep were sacrificed and their residual worm burdens were recovered and identified using standard procedures. The worm burdens of the treated sheep were compared with that of the untreated control and the evaluations are tabulated as Table 1.

[2] = system: Cooperia oncophora; experiment: as above; type: in vivo; conditions: 8 days after treatment
Protocol: as §1, §2

[3] = system: Cooperia spp.; experiment: as above; type: in vivo; conditions: 8 days after treatment
Protocol: as §1, §2

[4] = system: Haemonchus contortus (benzimidazole resistant isolate); experiment: as above; type: in vivo; conditions: 8 days after treatment
Protocol: as §1, §2

[5] = system: Oesophagostomum columbianum; experiment: as above; type: in vivo; conditions: 8 days after treatment, control worm burden 7
Protocol: as §1, §2

[6] = system: Ostertagia circumcincta; experiment: as above; type: in vivo; conditions: 8 days after treatment; for Efficacy, Ostertagia circumcincta L4: L4 stage; for Efficacy, Ostertagia circumcincta, Adult: adult stage
Protocol: as §1, §2

[7] = system: Trichostrongylus axei; experiment: as above; type: in vivo; conditions: 8 days after treatment
Protocol: as §1, §2

[8] = system: Trichostrongylus colubriformis (benzimidazole resistant isolate); experiment: as above; type: in vivo; conditions: 8 days after treatment
Protocol: as §1, §2

[9] = system: H. contortus, O. circumcincta, T. axei, T. colubriformis, C. curticei, C. oncophora, and Oe. columbianum; experiment: Fecal worm egg counts of treated infected sheep; type: in vivo; conditions: 3 treated sheep (6, 3 or 1 mg/kg P.O. single dose), four days following treatment, from 4,000-20,000 EPG
Protocol: as §1

[10] = system: Dermacentor albipictus larvae; experiment: Tick larvae immersion test; conditions: same suspension of crude extract as Example 13, 2 ml whole broth equivalent, immersed 10 minutes
Protocol: The same suspension used in Example 13 was used at a concentration of 2 ml whole broth equivalent to screen for activity against tick larvae. For this test Dermacentor albipictus larvae were immersed in 2 ml whole broth equivalent Paraherquamide for 10 minutes. The liquid was then removed with vacuum retaining the ticks on drug-impregnated filter paper.

[11] = Solubility; type: physicochemical

For `CN1C(=O)C23CC4C1(CN2CCC3(C)O)CC1(C(=O)Nc2c1ccc1c2OC=CC(C)(C)O1)C4(C)C` (stereo not shown) [Paraherquamide], the “Efficacy, Cooperia curticei” value ([1]; 1.0 mg/kg P.O. single dose) was 3 (≥91% effective), the “Efficacy, Cooperia curticei” value ([1]; 3.0 mg/kg P.O. single dose) was 3 (≥91% effective) and the “Efficacy, Cooperia curticei” value ([1]; 6.0 mg/kg P.O. single dose) was 3 (≥91% effective). The “Efficacy, Cooperia oncophora” value ([2]; 1.0 mg/kg P.O. single dose) was 3 (≥91% effective), the “Efficacy, Cooperia oncophora” value ([2]; 3.0 mg/kg P.O. single dose) was 3 (≥91% effective) and the “Efficacy, Cooperia oncophora” value ([2]; 6.0 mg/kg P.O. single dose) was 3 (≥91% effective). For the same molecule, the “Efficacy, Cooperia spp.” value ([3]; 1.0 mg/kg P.O. single dose) was 3 (≥91% effective), the “Efficacy, Cooperia spp.” value ([3]; 3.0 mg/kg P.O. single dose) was 3 (≥91% effective) and the “Efficacy, Cooperia spp.” value ([3]; 6.0 mg/kg P.O. single dose) was 3 (≥91% effective). For the same molecule, the “Efficacy, Haemonchus contortus” value ([4]; 1.0 mg/kg P.O. single dose) was 3 (≥91% effective), the “Efficacy, Haemonchus contortus” value ([4]; 3.0 mg/kg P.O. single dose) was 3 (≥91% effective) and the “Efficacy, Haemonchus contortus” value ([4]; 6.0 mg/kg P.O. single dose) was 3 (≥91% effective). The “Efficacy, Oesophagostomum columbianum” value ([5]; 1.0 mg/kg P.O. single dose) was 0 (0-50% effective), the “Efficacy, Oesophagostomum columbianum” value ([5]; 3.0 mg/kg P.O. single dose) was 3 (≥91% effective) and the “Efficacy, Oesophagostomum columbianum” value ([5]; 6.0 mg/kg P.O. single dose) was 3 (≥91% effective). The “Efficacy, Ostertagia circumcincta L4” value ([6]; 1.0 mg/kg P.O. single dose) was 2 (76-90% effective), the “Efficacy, Ostertagia circumcincta L4” value ([6]; 3.0 mg/kg P.O. single dose) was 3 (≥91% effective) and the “Efficacy, Ostertagia circumcincta L4” value ([6]; 6.0 mg/kg P.O. single dose) was 3 (≥91% effective). The “Efficacy, Ostertagia circumcincta, Adult” value ([6]; 1.0 mg/kg P.O. single dose) was 3 (≥91% effective), the “Efficacy, Ostertagia circumcincta, Adult” value ([6]; 3.0 mg/kg P.O. single dose) was 3 (≥91% effective) and the “Efficacy, Ostertagia circumcincta, Adult” value ([6]; 6.0 mg/kg P.O. single dose) was 2 (76-90% effective). The “Efficacy, Trichostrongylus axei” value ([7]; 1.0 mg/kg P.O. single dose) was 3 (≥91% effective), the “Efficacy, Trichostrongylus axei” value ([7]; 3.0 mg/kg P.O. single dose) was 3 (≥91% effective) and the “Efficacy, Trichostrongylus axei” value ([7]; 6.0 mg/kg P.O. single dose) was 3 (≥91% effective). For the same molecule, the “Efficacy, Trichostrongylus colubriformis” value ([8]; 1.0 mg/kg P.O. single dose) was 3 (≥91% effective), the “Efficacy, Trichostrongylus colubriformis” value ([8]; 3.0 mg/kg P.O. single dose) was 3 (≥91% effective) and the “Efficacy, Trichostrongylus colubriformis” value ([8]; 6.0 mg/kg P.O. single dose) was 3 (≥91% effective). The “fecal worm egg counts” value [9] was “barely detectable or undetectable level”, the “activity against tick larvae” value [10] was “rapidly and completely active” and the “solubility in organic solvents” value ([11]; organic solvents) was “soluble”. For the same molecule, the solubility in water ([11]; water) was “slight solubility”.
